Measured values published in patent publication US9994673B2, “Bisphenol polyether oligomers, methods of manufacture, and polycarbonates made therefrom” (SABIC GLOBAL TECHNOLOGIES B.V, priority 2013, dated 2018).
“Also recorded” adds a separate entry of the source.

Key:
[1] = target: T1, recombinant human estradiol receptor (rhER) alpha (Homo sapiens, UniProt P03372); assay: Competitive estradiol binding assay, displacement of [3H]estradiol, rhER alpha; conditions: up to highest concentration 2.5×E-4 M
T1 sequence (P03372 1-595): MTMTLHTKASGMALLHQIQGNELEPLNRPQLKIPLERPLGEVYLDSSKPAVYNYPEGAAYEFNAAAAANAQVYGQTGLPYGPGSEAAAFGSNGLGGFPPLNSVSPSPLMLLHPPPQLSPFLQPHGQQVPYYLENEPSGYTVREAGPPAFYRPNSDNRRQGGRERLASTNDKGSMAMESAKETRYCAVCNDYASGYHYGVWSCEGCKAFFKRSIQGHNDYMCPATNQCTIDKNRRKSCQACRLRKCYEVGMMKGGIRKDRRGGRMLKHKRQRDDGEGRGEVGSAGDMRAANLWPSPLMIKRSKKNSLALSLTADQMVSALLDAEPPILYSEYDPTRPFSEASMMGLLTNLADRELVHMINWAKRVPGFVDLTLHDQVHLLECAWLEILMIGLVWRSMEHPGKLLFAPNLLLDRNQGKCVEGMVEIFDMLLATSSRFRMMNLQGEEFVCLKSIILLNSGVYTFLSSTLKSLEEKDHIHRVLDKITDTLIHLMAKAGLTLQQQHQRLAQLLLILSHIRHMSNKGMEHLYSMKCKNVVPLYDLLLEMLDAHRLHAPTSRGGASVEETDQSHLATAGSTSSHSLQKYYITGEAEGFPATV

[2] = target: recombinant human estradiol receptor (rhER) beta 1 (Homo sapiens, UniProt Q92731); assay: Competitive estradiol binding assay, displacement of [3H]estradiol, rhER beta 1; conditions: up to highest concentration 2.5×E-4 M

| Compound | Binding to rhER alpha (in words) ([1]; listed as BPA) | Binding to rhER beta (in words) ([2]; listed as BPA) | Binding to rhER alpha (in words) [1] | Binding to rhER beta (in words) [2] |
| --- | --- | --- | --- | --- |
| CC(C)(c1ccc(O)cc1)c1ccc(O)cc1 [Control B, Bisphenol A] | bind to both receptors; also recorded: very low level of binding | bind to both receptors; also recorded: very low level of binding | – | – |
| CC(C)(c1ccc(O)cc1)c1ccc(OCc2ccc(COc3ccc(C(C)(C)c4ccc(O)cc4)cc3)cc2)cc1 [BPA-X-1, 4,4′-[1,4-Phenylenebis(methyleneoxy-4,1-phenylene(1-methylethylidene))]bisphenol] | – | – | no detectable binding | no detectable binding |
| CC(C)(c1ccccc1)c1ccc(O)cc1 [Control C, p-Cumyl Phenol] | – | – | very low level of binding | very low level of binding |
